In one experiment the target is T1, a1A-adrenoceptor (Rattus norvegicus, UniProt P43140).
T1 construct: The submaxillary glands, spleen, and aorta of rats were separately homogenized; from tissue; host or cells: Wistar rat submaxillary gland membranes
T1 sequence (P43140 1-466): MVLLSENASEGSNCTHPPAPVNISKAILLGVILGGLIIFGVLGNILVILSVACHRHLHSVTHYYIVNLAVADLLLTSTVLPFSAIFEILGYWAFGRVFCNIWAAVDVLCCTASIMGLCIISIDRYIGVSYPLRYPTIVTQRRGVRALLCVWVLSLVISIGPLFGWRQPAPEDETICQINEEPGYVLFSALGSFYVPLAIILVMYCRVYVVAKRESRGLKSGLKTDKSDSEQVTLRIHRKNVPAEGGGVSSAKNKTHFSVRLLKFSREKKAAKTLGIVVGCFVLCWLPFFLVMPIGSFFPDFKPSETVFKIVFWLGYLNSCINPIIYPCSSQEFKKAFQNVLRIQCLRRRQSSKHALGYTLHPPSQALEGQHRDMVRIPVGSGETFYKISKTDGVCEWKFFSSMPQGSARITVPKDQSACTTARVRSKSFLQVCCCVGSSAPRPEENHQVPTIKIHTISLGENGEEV
Briefly: [3H]-prazosin competition binding, rat submaxillary gland membranes. The protocol:
(§1) Wistar rats were obtained from National Laboratory Animal Breeding and Research Center (Taipei, Taiwan) and housed under a constant temperature and controlled illumination. The submaxillary glands, spleen, and aorta of rats were separately homogenized for 30 seconds with a Kinematica polytron in 20 volumes of ice-cold TE buffer (10 mM Tris HCl, 1 mM EDTA, 0.1 mM ascorbic acid, pH 7.4). The homogenate was filtered under pressure through muslin and the filtrate was centrifuged at 1,000 g for 10 minutes. The supernatant was centrifuged again at 10,000 g for 12 minutes at 4° C. The second supernatant was centrifuged at 30,000 g for 15 minutes at 4° C., and the final pellet was resuspended in the assay buffer (75 mM Tris HCl, 25 mM MgCl2, pH 7.4). Protein content was determined by Bradford's method.
[^3H]-prazosin, KMUP-1 and membranes (200-300 μg) were incubated for 60 minutes at 25° C. with or without the addition of nonspecific binding agents, in a 75 mM Tris HCl buffer with 25 mM MgCl2, making a final volume of 500 μL. In this experiment, non-specific binding was defined by use of 10 μM phentolamine. In competitive-binding experiments, the competing agent was added directly to the incubation mixture. The incubation was terminated by adding 1 mL of ice cold assay buffer followed by immediate filtration through Whatman GF/C glass fiber filters supported on a 12-port filter manifold (Whatman Int. Ltd, Springfield Mill, Maidstone, UK). The filters were immediately washed 3 times with 5 mL of ice-cold assay buffer and dried in an oven at 60° C. for 2 hours before adding 5 mL of Triton-toluene based scintillation fluid. Membrane-bound radioligand trapped in the filters was counted in a Beckman LS6500 scintillation system (Fullerton, Calif.) with an efficiency of 45%. In each experiment, nonspecifically bound radioligand agents were measured by incubating membrane protein. Specific binding was then obtained by deducting this value from the total binding of radioligand agents for each sample.

The target in a further experiment is T2, a1D-adrenoceptor (Rattus norvegicus, UniProt P23944).
T2 construct: The submaxillary glands, spleen, and aorta of rats were separately homogenized; from tissue; host or cells: Wistar rat aorta membranes
T2 sequence (P23944 1-561): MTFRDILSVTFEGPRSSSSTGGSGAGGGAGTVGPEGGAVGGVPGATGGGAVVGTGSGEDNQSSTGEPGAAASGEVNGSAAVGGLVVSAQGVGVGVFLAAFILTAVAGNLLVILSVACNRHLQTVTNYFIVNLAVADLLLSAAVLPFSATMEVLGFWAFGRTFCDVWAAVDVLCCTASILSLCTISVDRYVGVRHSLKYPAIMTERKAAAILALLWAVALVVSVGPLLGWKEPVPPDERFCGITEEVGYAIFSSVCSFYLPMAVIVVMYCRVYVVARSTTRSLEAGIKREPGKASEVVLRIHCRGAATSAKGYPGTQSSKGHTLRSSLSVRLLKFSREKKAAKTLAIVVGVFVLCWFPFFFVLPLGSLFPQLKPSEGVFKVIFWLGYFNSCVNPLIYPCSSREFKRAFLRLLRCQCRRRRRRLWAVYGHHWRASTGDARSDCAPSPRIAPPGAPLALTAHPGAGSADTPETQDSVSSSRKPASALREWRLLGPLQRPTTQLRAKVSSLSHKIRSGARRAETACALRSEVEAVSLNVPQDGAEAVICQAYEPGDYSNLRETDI
Briefly: [3H]-prazosin competition binding, rat aorta membranes. To be noted: read-out: Receptor Affinity (pKi) a1D (converted). How it is done:
as §1
[^3H]-prazosin, KMUP-1 and membranes (200-300 μg) were incubated for 60 minutes at 25° C. with or without the addition of nonspecific binding agents, in a 75 mM Tris HCl buffer with 25 mM MgCl2, making a final volume of 500 μL. In this experiment, non-specific binding was defined by use of 10 μM phentolamine. […] Membrane-bound radioligand trapped in the filters was counted in a Beckman LS6500 scintillation system (Fullerton, Calif.) with an efficiency of 45%. In each experiment, nonspecifically bound radioligand agents were measured by incubating membrane protein. […]

Regarding `Cn1c(=O)c2c(ncn2CCN2CCN(c3ccccc3Cl)CC2)n(C)c1=O` [KMUP-1, 7-[2-[4-(2-Chlorobenzene)piperazinyl]ethyl]-1,3-dimethyl xanthine], the “Selective Ratio a1A/a1B” value on a1A-adrenoceptor worked out at 5. Besides, on a1A-adrenoceptor, the “Selective Ratio a1A/a1D” value was determined as 1. For the same compound, the Ki is 20.4 nM at a1A-adrenoceptor (rat submaxillary glands, [3H]-prazosin, read-out: Receptor Affinity (pKi) a1A (converted)) and 20.4 nM on a1D-adrenoceptor.

The values are drawn from patent US20090306093A1, “METHOD FOR TREATING PATIENT HAVING BENIGN PROSTATE HYPERPLASIA” (KAOHSIUNG MEDICAL UNIVERSITY, priority 2008, published 2009).
